Data reported in patent US20130203659A1 (priority 2006, published 2013).
Non-standard residues stand in square brackets, D forms with d. Primed or numbered codes have the meaning given here. No end group written: not given here. Aib′ = alpha aminobutyric acid (source's wording); 20k PEG = polyethylene glycol, 20 kDa

Legend:
[1] = tested on: db/db diabetic mouse model; test: Fed blood glucose in db/db diabetic mice; format: in vivo
Protocol: The db/db mice are commercially available from The Jackson Laboratory JAX® GEMM® Strain—Spontaneous Mutation Congenic Mice, and are homozygous for the diabetes spontaneous mutation (Lepr^db). These mice become identifiably obese around 3 to 4 weeks of age. The criterion for selection for each mouse to enter the study was blood glucose of at least 300 mg/dL. Db/db mice at 8.5 weeks of age (for a chronic 1-2 wk study) to about 10-11 weeks of age (for an acute 1-3 day study) were injected once with each tested compound (acute experiment) or multiple times (chronic experiment). […] The mice were then placed in a fresh cage without any chow, so as to limit any variability in blood glucose levels associated with eating behaviors. Time points of 1 hr, 4 hr, 6 hr, and 24 hr were normally taken. When at the 24 hour time point blood glucose values were below where they started, further time points at every 24 hrs were taken until blood glucose returned to the baseline levels. Normal chow was given back after the 6 hr time point.
Tachyphylaxis was determined by multiple injections. A second injection of the compound was administered after the blood glucose levels sufficiently returned to starting baseline levels. At this point, it was evident whether the compound had the same effect/efficacy, or if there was any noticeable tachyphylaxis.

[2] = tested on: C57B16 (normal lean) mice; test: Blood glucose and intraperitoneal glucose tolerance test in C57B16 (normal lean) mice; format: in vivo, mouse
Protocol: C57B16 (normal lean) mice were used at 10 to 12 weeks of age. These mice are commercially available through any vendor, such as Jackson Laboratories or Charles River, and are considered to be normal. The term “lean” is used to contrast these mice to obese db/db mice. C57B16 mice were randomized on body weight. […] After 4-5 hrs, an intraperitoneal glucose tolerance test (glucose tolerance test measures the body's ability to metabolize glucose) was performed using 2 g/kg of glucose dose. Blood glucose levels were measured 30 min and 90 minutes after the glucose load was administered and 24 hours or until blood glucose levels were back to the original values.

For “mgGLP32: SEQ ID NO: 18 + 20 k PEG (HGEGTFTSDVSSYLE[Aib′]QAAKEFIAWLVKGRGC(20k PEG)A-NH2; not fully specified)”, the “lowering of blood glucose levels (FIG. 14)” value ([1]; 10 ug per mouse) was “lowered blood glucose levels”, the “time needed for blood glucose levels to return to normal levels” value ([1]; 10 ug/mouse) was 72 h and the “lowering of blood glucose at different doses (FIG. 15)” value ([1]; 5 and 10 μg/mouse) was “lowered blood glucose levels for 24 hours in a dose dependent fashion”. For the same substance, the “tachyphylaxis, multiple dose experiment” value ([1]; second bolus the next day) was “The same result was observed”, the “tachyphylaxis after the 4th dose (FIG. 19)” value ([2]; 4-day multiple dose experiment) was “No tachyphylaxyis was observed after the 4th dose” and the “blood glucose after injection, before the GTT (FIG. 16)” value ([2]; C57B16 mice, first 52 hours after injection) was “decreased blood glucose to the same extent during the first 52 hours”. For the same substance, the “blood glucose during the 4 hour fast (FIG. 19)” value ([2]; multiple dose experiment) was “blood glucose was decreased during the 4 hour fast” and the “blood glucose spike during first and second GTT (FIG. 19)” value ([2]; multiple dose experiment, GTT after first and 4th injection) was “no blood glucose spike was seen during the first and second GTT”.
